The structures appear in SMILES notation. Like-named read-outs stand apart in the source and are kept apart here.

The values below come from US20060148858A1, “1, 2-Azole derivatives with hypoglycemic and hypolipidemic activity” (priority 2002, published 2006).

In one series the target is T1, PPARγ-RXRα heterodimer (Homo sapiens, UniProt P37231).
T1 construct: expressed in transfected cells; host or cells: CHO-K1
T1 sequence (P37231 1-477 isoform P37231-2): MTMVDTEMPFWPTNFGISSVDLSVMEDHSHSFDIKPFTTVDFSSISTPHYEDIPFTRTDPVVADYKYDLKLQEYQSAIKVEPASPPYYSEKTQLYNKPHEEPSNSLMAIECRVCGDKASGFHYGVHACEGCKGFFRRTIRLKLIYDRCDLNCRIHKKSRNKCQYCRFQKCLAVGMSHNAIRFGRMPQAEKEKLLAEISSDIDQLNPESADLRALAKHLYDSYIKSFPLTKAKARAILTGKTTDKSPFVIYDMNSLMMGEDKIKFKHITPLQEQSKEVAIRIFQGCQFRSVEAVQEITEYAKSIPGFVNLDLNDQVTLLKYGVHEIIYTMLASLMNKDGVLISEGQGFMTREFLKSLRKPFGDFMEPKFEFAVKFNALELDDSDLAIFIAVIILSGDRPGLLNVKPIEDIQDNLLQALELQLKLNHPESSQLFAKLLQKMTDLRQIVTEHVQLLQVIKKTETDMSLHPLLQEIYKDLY
T1 sequence (P19793 1-462 partner): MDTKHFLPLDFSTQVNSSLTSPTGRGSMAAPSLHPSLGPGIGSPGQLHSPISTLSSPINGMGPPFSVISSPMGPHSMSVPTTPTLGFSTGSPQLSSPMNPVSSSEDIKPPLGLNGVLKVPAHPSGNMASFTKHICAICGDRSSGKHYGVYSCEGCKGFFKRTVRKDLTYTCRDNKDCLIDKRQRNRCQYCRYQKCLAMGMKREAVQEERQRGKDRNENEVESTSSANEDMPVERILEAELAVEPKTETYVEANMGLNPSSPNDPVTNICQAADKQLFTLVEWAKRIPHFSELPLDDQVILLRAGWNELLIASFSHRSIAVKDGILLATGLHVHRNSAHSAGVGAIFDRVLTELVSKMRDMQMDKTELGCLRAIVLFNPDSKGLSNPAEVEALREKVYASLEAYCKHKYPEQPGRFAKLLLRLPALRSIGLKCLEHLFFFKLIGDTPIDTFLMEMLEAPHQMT
The experiment in a line: PPARγ-RXRα heterodimer ligand activity, luciferase reporter in PPARγ:RXRα:4ERPP/CHO-K1 cells (Test Example 3). The note with it: 18-48 hours, concentration for 50% of the maximum fold induction. Format: cell-based. The method, then: A PPARγ: RXRα: 4ERPP/CHO-K1 cells obtained in Reference Example 8a described later were cultured in HAM F12 medium (produced by Life Technologies, Inc., USA) containing 10% Fetal bovine serum (produced by Life Technologies, Inc., USA) and then inoculated to a 96-well white plate (produced by Corning Costar Corporation, USA) at the density of 2×10^4 cells/well, and cultured in a CO2 gas incubator at 37° C. overnight.
After removing the medium from 96 well white plate, 80 μl of HAM F12 medium containing 0.1% fatty acid-free bovine serum albumin (BSA) and 20 μl of test compound were added, which was cultured in a CO2 gas incubator at 37° C. for 18-48 hours. After removing the medium, 40 μl of PIKKAGENE 7.5 (produced by Wako Pure Chemical Industries, Ltd.) diluted twice with HBSS (HANKS' BALANCED SALT SOLUTION)(produced by BIO WHITTAKER Inc., USA), was added. After stirring, the luciferase activity was determined using 1420 ARVO Multilabel Counter (produced by PerkinElmer Inc., USA).
A fold induction was calculated based on the luciferase activity of each test compound by taking the luciferase activity in the non-treatment group as 1. The values of the test compound concentration and the fold induction were analyzed using PRISM (produced by GraphPad Software Inc. USA) to calculate the EC50 values, the effective concentration of a test compound for 50% of the maximum fold induction.
After a CHO-K1 cell cultured in a 150 cm^2 cell culture flask (750 ml)(produced by Corning Costar Corporation, USA) containing HAM F12 medium (produced by Life Technologies, Inc., USA) supplemented with 10% Fetal Bovine Serum (produced by Life Technologies, Inc., USA) was scraped by treating with 0.5 g/L trypsin-0.2 g/L EDTA (ethylenediaminetetraacetic acid) (produced by Life Technologies, Inc., USA), the cell was washed with PBS (phosphate-buffered saline) (produced by Life Technologies, Inc., USA), centrifuged (1000 rpm, 5 minutes), and then suspended in PBS. Subsequently, a DNA was introduced into the cell under the condition shown below using GENE PULSER (produced by Bio-Rad Laboratories, USA).
Namely, to a cuvette having a 0.4 cm gap, added were 8×10^6 cells and 10 μg of plasmid pVgRXR2-hPPARγ obtained in Reference Example 7a and 10 μg of reporter plasmid pGL3-4ERPP-TK neo obtained in Reference Example 5a, which was subjected to electroporation at the voltage of 0.25 kV under the capacitance of 960 μF. Subsequently, the cell was transferred into a HAM F12 medium containing 10% Fetal Bovine Serum and cultured for 24 hours and then the cell was scraped again and centrifuged, and then suspended in HAM F12 medium containing 10% Fetal Bovine Serum supplemented with 500 μg/ml of GENETICIN (produced by Life Technologies, Inc., USA) and 250 μg/ml of ZEOCIN (produced by Invitrogen, USA). The obtained suspension was diluted to the density of 10^4 cells/ml and inoculated to a 96-well plate (produced by Corning Costar Corporation, USA), which was cultured in a CO2 gas incubator at 37° C., whereby obtaining a GENETICIN- and ZEOCIN-resistant transformant.
Subsequently, after the transformant cell line thus obtained was cultured in a 24-well plate (produced by Corning Costar Corporation, USA), selected was a cell line in which the luciferase was expressed and induced, i.e., PPARγ:RXRα:4ERPP/CHO-K1 cell by addition of 10 μM of pioglitazone hydrochloride.
On the technique in general: In a reporter assay the amount or activity of a reporter protein is the signal.

Series [1] relates to KKAY mice. Briefly: Hypoglycemic and hypolipidemic actions in mice (Test Example 1). It counts as in vivo. The note with it: Mus musculus, po, 96 h, 0.005% in powdery diet, four days, non-treated group taken as 100%. The method, then:
Test compounds were mixed in a powdery diet (CE-2, Japan Clea) at the concentration of 0.005%, and freely given to KKAY mice (9 to 12 weeks old, 5 mice in a group), a model of obese and non-insulin dependent diabetes (type 2 diabetes), for four days. During this period, water was given freely. Blood was sampled from orbital venous plexus, and glucose and triglyceride levels in plasma separated from blood were determined enzymatically using L type Wako Glu2 (Wako Pure Chemical Industries, Ltd.) or L type Wako TG·H (Wako Pure Chemical Industries, Ltd.), respectively.
In the table, “hypoglycemic action (%)” means the rate of decrease (%) in the blood glucose level of the treated group when the blood glucose level of the non-treated group is taken as 100%. In addition, the “hypolipidemic action (%)” means the rate of decrease (%) in the blood triglyceride level of the treated group when the blood triglyceride level of the non-treated group is taken as 100%.

For series [2], the system named is KKAY mice. Briefly: Plasma anti-arteriosclerosis index-enhancing action in mice (Test Example 2). The note with it: Mus musculus, po, 96 h, 0.005% in powdery diet, four days, percent increase of (HDL cholesterol/total cholesterol)x100, non-treatment group taken as 100%. Format: in vivo. As for the experimental part:
Test compounds were mixed in a powdery diet (CE-2, Japan Clea) at the concentration of 0.005%, and freely given to KKAY mice (9 to 12 weeks old, 5 mice per group), a model of obese and non-insulin dependent diabetes (type 2 diabetes), for four days. During this period, water was given freely. Blood was sampled from orbital venous plexus and components in plasma separated from blood were determined. Total cholesterol levels were determined by using L type Wako Cholesterol (Wako Pure Chemical Industries, Ltd.). Precipitation reagent for HDL cholesterol (Wako Pure Chemical Industries, Ltd.) was added to a part of the plasma to precipitate non-HDL lipoprotein, and cholesterol (HDL cholesterol) in the resulting supernatant was determined. The plasma anti-arteriosclerosis index [(HDL cholesterol/total cholesterol)×100] was calculated by using these cholesterol levels.
In the Table, “Plasma anti-arteriosclerosis index-enhancing action (%)” represents the percent increase (%) of plasma anti-arteriosclerosis index in the treatment group, when the plasma anti-arteriosclerosis index in the non-treatment group is taken as 100%.

Where [3] appears, read: rate of decrease in blood glucose level, read-out: Hypoglycemic action (%).
Setting [4] is: rate of decrease in blood triglyceride level, read-out: Hypolipidemic action (%).

For orientation: EC50 means the concentration at which the effect is half-maximal. Low values mean greater potency, high ones weaker potency. The melting point is the temperature of the solid-liquid transition. In turn, `CCCC(C)c1nn(-c2ccc(C(F)(F)F)cn2)cc1CCCOc1c(CC(=O)O)cccc1OC` (centres unmarked) [Example 220, [3-methoxy-2-(3-{3-(1-methylbutyl)-1-[5-(trifluoromethyl)-2-pyridyl]-1H-pyrazol-4-yl}propoxy)phenyl]acetic acid] gave a melting point of 107 to 108 °C. On PPARγ-RXRα heterodimer, this compound yielded a half-maximal effective concentration (EC50) of 9.6 nM. In addition, the inhibition in vivo at 0.005 % in diet in the series on KKAY mice [1] (setting [3]) amounted to 44%. In addition, the inhibition in vivo at 0.005 % in diet in the series with KKAY mice [1] (setting [4]) was determined as 50%.
The corresponding values for `CCOc1cccc(CC(=O)O)c1OCCCc1cn(-c2ccc(C(F)(F)F)cn2)nc1C(CC)CC` [Example 221, [3-ethoxy-2-(3-{3-(1-ethylpropyl)-1-[5-(trifluoromethyl)-2-pyridyl]-1H-pyrazol-4-yl}propoxy)phenyl]acetic acid] are 83 to 84 °C, 12 nM, 46% and 21%.
`CCCc1nn(-c2ccc(C(F)(F)F)cn2)cc1CCCOc1c(CC)cccc1CC(=O)O` [Example 229, [3-ethyl-2-(3-{3-propyl-1-[5-(trifluoromethyl)-2-pyridinyl]-1H-pyrazol-4-yl}propoxy)phenyl]acetic acid]: the melting point lay within 146 to 147 °C. On PPARγ-RXRα heterodimer, this compound returned an EC50 of 21 nM. For the same compound, in the series with KKAY mice [1] (setting [3]), the inhibition in vivo at 0.005 % in diet worked out at 41%. Besides, the inhibition in vivo at 0.005 % in diet with KKAY mice [1] (setting [4]) turned out to be 49%.
The compound `CC(C)c1nn(-c2ccc(C(F)(F)F)cn2)cc1CCCOc1c(Br)cccc1CC(=O)O` [Example 235, [3-bromo-2-(3-{3-isopropyl-1-[5-(trifluoromethyl)-2-pyridinyl]-1H-pyrazol-4-yl}propoxy)phenyl]acetic acid] registered a melting point of 146 to 147 °C. The same compound yielded an EC50 on PPARγ-RXRα heterodimer of 26 nM. Also, the inhibition in vivo at 0.005 % in diet in the series with KKAY mice [1] (setting [3]) worked out at 43%. Further, the inhibition in vivo at 0.005 % in diet in the series on KKAY mice [1] (setting [4]) is 64%.
For `CC(C)c1nn(-c2ccc(C(F)(F)F)cn2)cc1CCCOc1c(Cl)cccc1CC(=O)O` [Example 239, [3-chloro-2-(3-{3-isopropyl-1-[5-(trifluoromethyl)-2-pyridinyl]-1H-pyrazol-4-yl}propoxy)phenyl]acetic acid] the same measures were 141 to 142 °C, 35 nM, 42% and 65%.
On to `COc1cccc(CC(=O)O)c1OCCCc1cn(-c2ccc(C)cn2)nc1C(C)C` [Example 272, (3-methoxy-2-{3-[3-isopropyl-1-(5-methyl-2-pyridyl)-1H-pyrazol-4-yl]propoxy}phenyl)acetic acid], for which the melting point fell in the range of 132 to 133 °C. This compound also gave a concentration for a half-maximal effect (EC50) at PPARγ-RXRα heterodimer of 50 nM. In addition, the inhibition in vivo at 0.005 % in diet with KKAY mice [1] (setting [3]) was 48%. Moreover, in the series with KKAY mice [1] (setting [4]), the inhibition in vivo at 0.005 % in diet stood at 69%.
Regarding `CC(C)c1nn(-c2ccc(C(F)(F)F)cn2)cc1CCCOc1nn(C)cc1CC(=O)O` [Example 299, [3-(3-{3-isopropyl-1-[5-(trifluoromethyl)-2-pyridinyl]-1H-pyrazol-4-yl}propoxy)-1-methyl-1H-pyrazol-4-yl]acetic acid], the melting point was in the range of 122 to 123 °C. Moreover, in the series with KKAY mice [2], the change in vivo at 0.005 % in diet came to 11%.
The corresponding values for `CC(C)c1nn(-c2ccc(C(F)(F)F)cn2)cc1CCCOc1c(CC(=O)O)cnn1C` [Example 318, [5-(3-{3-isopropyl-1-[5-(trifluoromethyl)-2-pyridinyl]-1H-pyrazol-4-yl}propoxy)-1-methyl-1H-pyrazol-4-yl]acetic acid] are 146 to 148 °C and 22%.
For `CCn1ncc(CC(=O)O)c1OCCCc1cn(-c2ccc(C(F)(F)F)cn2)nc1C(C)C` [Example 322, [1-ethyl-5-(3-{3-isopropyl-1-[5-(trifluoromethyl)-2-pyridinyl]-1H-pyrazol-4-yl}propoxy)-1H-pyrazol-4-yl]acetic acid] the same measures were 120 to 121 °C and 14%.
For `CCOc1nn(-c2ccc(C(F)(F)F)cn2)cc1CCCOc1nn(CC)cc1CC(=O)O` [Example 335, [3-(3-{3-ethoxy-1-[5-(trifluoromethyl)-2-pyridinyl]-1H-pyrazol-4-yl}propoxy)-1-ethyl-1H-pyrazol-4-yl]acetic acid], the melting point is 108 to 109 °C. For the same compound, the change in vivo at 0.005 % in diet in the series on KKAY mice [2] came out at 12%.
